Starred links: 1 amine or outer side, 2 acyl side, 3 side chain; linkers in the order of their positions; H or OH if unused. Positions of bridges follow the written chain, without caps; N, C: chain ends. Non-standard residues stand in square brackets, D forms with d. Residues, ends and D or L forms follow the SMILES beside them. Phe(3,4,5-F3) = N[C@@H](Cc1cc(F)c(F)c(F)c1)C(=O)O; Phe(3,5-Cl2) = N[C@@H](Cc1cc(Cl)cc(Cl)c1)C(=O)O; X15 = O=C([C@H](Cc1ccc(Cl)c(F)c1)N[*:1])[*:2]; Pro(4R-NH2) = N[C@H]1CN[C@H](C(=O)O)C1; d(cisHyp) = O=C(O)[C@H]1C[C@@H](O)CN1; NMeF = CN[C@@H](Cc1ccccc1)C(=O)O; NMeE = CN[C@@H](CCC(=O)O)C(=O)O; NMeNle = CCCC[C@H](NC)C(=O)O; Orn = NCCC[C@H](N)C(=O)O; Sar = CNCC(=O)O
Assays:
[1] = molecular target: T1, Human PD-L1/PD-1 (Homo sapiens, UniProt Q9NZQ7); assay: HTRF PD-1-Ig/PD-L1-His binding assay (human PD-L1); conditions: cluster symbol; read-out: HTRF IC50 cluster
T1 construct: made in house; host or cells: HEK293T
T1 sequence (Q9NZQ7 with tags, fused parts or gaps): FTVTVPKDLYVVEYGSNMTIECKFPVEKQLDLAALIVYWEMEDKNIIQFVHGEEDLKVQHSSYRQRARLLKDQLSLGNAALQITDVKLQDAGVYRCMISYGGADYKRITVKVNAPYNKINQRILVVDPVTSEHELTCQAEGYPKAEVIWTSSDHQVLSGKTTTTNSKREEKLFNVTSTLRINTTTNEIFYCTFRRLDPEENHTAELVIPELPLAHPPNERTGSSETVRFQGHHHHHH
Outline: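 The time-resolved fluorescence signal comes from Eu-cryptate anti-Ig (1 nM) and APC anti-His (20 nM) antibodies bound to a PD-1-Ig/PD-L1-His complex. Both partners lack transmembrane regions.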

[2] = molecular target: T2, LK35.2-hPD-L1 cells / PE-labeled PD-1-Ig (Homo sapiens, UniProt Q9NZQ7); assay: LK35.2-hPD-L1 cell binding high-content screening assay; format: cell-based; conditions: cluster symbol; cell line of CBA not given (LK35.2-hPD-L1 or 293T-hPD-L1); read-out: CBA IC50 cluster
T2 construct: expressed in transfected cells; host or cells: LK35.2 mouse B cell line
T2 sequence (Q9NZQ7 19-290): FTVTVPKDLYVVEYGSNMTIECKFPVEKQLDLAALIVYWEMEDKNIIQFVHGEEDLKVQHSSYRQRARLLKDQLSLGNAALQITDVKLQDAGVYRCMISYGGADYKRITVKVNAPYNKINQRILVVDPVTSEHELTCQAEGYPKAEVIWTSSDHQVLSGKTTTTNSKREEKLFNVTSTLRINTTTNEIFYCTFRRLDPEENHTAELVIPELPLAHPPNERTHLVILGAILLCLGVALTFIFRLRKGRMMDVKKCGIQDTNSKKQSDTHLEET
Outline: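 Using overnight-cultured LK35.2-hPD-L1 mouse B cells, compound was co-incubated with phycoerythrin-tagged human PD-1-Ig (final 1 nM) at 37 °C for one hour. Unbound label was removed by triple dPBS washing prior to high-content image acquisition and analysis.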

Row | Compound | IC50 [1] | IC50 [2]
1 | CCCC[C@@H]1NC(=O)CSC[C@@H](C(=O)NCC(N)=O)NC(=O)[C@H](CC(C)C)NC(=O)[C@H](Cc2ccc(O)cc2)NC(=O)[C@H](Cc2c[nH]c3ccccc23)NC(=O)CN(C)C(=O)[C@H](Cc2ccc(O)cc2)NC(=O)[C@H](Cc2ccccc2)N(C)C(=O)[C@H](C(C)C)NC(=O)[C@H](CC(=O)O)NC(=O)CN(C)C(=O)[C@H](CCCC)N(C)C(=O)[C@H](Cc2ccccc2)N(C)C1=O [Example 3171] (HELM PEPTIDE1{[O=C(C[*:3])[*:2]].[Nle].[meF].[CCCC[C@@H](C(=O)[*:2])N(C)[*:1]].[Sar].D.V.[meF].Y.[Sar].W.Y.L.C.G.[am]}$PEPTIDE1,PEPTIDE1,1:R3-14:R3$$$V2.0) | > 30.5 nM | > 74.3 nM
2 | CCCC[C@H]1C(=O)N2CCC[C@@H]2C(=O)N2CCC[C@H]2C(=O)N[C@@H](C(C)C)C(=O)N(C)[C@@H](Cc2ccccc2)C(=O)N[C@@H](Cc2ccc(O)cc2)C(=O)N(C)CC(=O)N[C@@H](Cc2c[nH]c3ccccc23)C(=O)N[C@@H](Cc2ccc(O)cc2)C(=O)N[C@@H](CC(C)C)C(=O)N[C@H](C(=O)NCC(N)=O)CSCC(=O)N[C@@H](Cc2ccccc2)C(=O)N(C)[C@@H](Cc2ccccc2)C(=O)N1C [Example 3173] (HELM PEPTIDE1{[O=C(C[*:3])[*:2]].F.[meF].[CCCC[C@@H](C(=O)[*:2])N(C)[*:1]].[dP].P.V.[meF].Y.[Sar].W.Y.L.C.G.[am]}$PEPTIDE1,PEPTIDE1,1:R3-14:R3$$$V2.0) | > 30.5 nM | 4.78 to 72.9 nM
3 | CCCC[C@H]1C(=O)N2CCC[C@@H]2C(=O)N2C[C@H](O)C[C@H]2C(=O)N[C@@H](C(C)C)C(=O)N(C)[C@@H](Cc2ccccc2)C(=O)N[C@@H](Cc2ccc(O)cc2)C(=O)N(C)CC(=O)N[C@@H](Cc2c[nH]c3ccccc23)C(=O)N[C@@H](Cc2ccc(O)cc2)C(=O)N[C@@H](CC(C)C)C(=O)N[C@H](C(=O)NCC(N)=O)CSCC(=O)N[C@@H](Cc2ccccc2)C(=O)N(C)[C@@H](Cc2ccccc2)C(=O)N1C [Example 3174] (HELM PEPTIDE1{[O=C(C[*:3])[*:2]].F.[meF].[CCCC[C@@H](C(=O)[*:2])N(C)[*:1]].[dP].[Hyp].V.[meF].Y.[Sar].W.Y.L.C.G.[am]}$PEPTIDE1,PEPTIDE1,1:R3-14:R3$$$V2.0) | > 30.5 nM | 4.78 to 72.9 nM
4 | CCCC[C@H]1C(=O)N2CCC[C@@H]2C(=O)N2C[C@H](N)C[C@H]2C(=O)N[C@@H](C(C)C)C(=O)N(C)[C@@H](Cc2ccccc2)C(=O)N[C@@H](Cc2ccc(O)cc2)C(=O)N(C)CC(=O)N[C@@H](Cc2c[nH]c3ccccc23)C(=O)N[C@@H](Cc2ccc(O)cc2)C(=O)N[C@@H](CC(C)C)C(=O)N[C@H](C(=O)NCC(N)=O)CSCC(=O)N[C@@H](Cc2ccccc2)C(=O)N(C)[C@@H](Cc2ccccc2)C(=O)N1C [Example 3175] ({CH2CO}-F[NMeF][NMeNle][dP][Pro(4R-NH2)]V[NMeF]Y[Sar]WYLCG-NH2; thioether N-13) | 6.76 to 30.3 nM | 4.78 to 72.9 nM
5 | CCCC[C@H]1C(=O)N(C)CC(=O)N[C@@H](CC(=O)O)C(=O)N[C@@H](C(C)C)C(=O)N(C)[C@@H](Cc2ccccc2)C(=O)N2CCC[C@H]2C(=O)N2CCC[C@@H]2C(=O)N[C@@H](Cc2c[nH]c3ccccc23)C(=O)N[C@@H](Cc2ccc(O)cc2)C(=O)N[C@@H](CC(C)C)C(=O)N[C@H](C(=O)NCC(N)=O)CSCC(=O)N[C@@H](Cc2ccccc2)C(=O)N(C)[C@@H](Cc2ccccc2)C(=O)N1C [Example 3176] (HELM PEPTIDE1{[O=C(C[*:3])[*:2]].F.[meF].[CCCC[C@@H](C(=O)[*:2])N(C)[*:1]].[Sar].D.V.[meF].P.[dP].W.Y.L.C.G.[am]}$PEPTIDE1,PEPTIDE1,1:R3-14:R3$$$V2.0) | > 30.5 nM | > 74.3 nM
6 | CCCC[C@H]1C(=O)N(C)CC(=O)N[C@@H](CC(=O)O)C(=O)N[C@@H](C(C)C)C(=O)N(C)[C@@H](Cc2ccccc2)C(=O)N2C[C@H](O)C[C@H]2C(=O)N2CCC[C@@H]2C(=O)N[C@@H](Cc2c[nH]c3ccccc23)C(=O)N[C@@H](Cc2ccc(O)cc2)C(=O)N[C@@H](CC(C)C)C(=O)N[C@H](C(=O)NCC(N)=O)CSCC(=O)N[C@@H](Cc2ccccc2)C(=O)N(C)[C@@H](Cc2ccccc2)C(=O)N1C [Example 3177] (HELM PEPTIDE1{[O=C(C[*:3])[*:2]].F.[meF].[CCCC[C@@H](C(=O)[*:2])N(C)[*:1]].[Sar].D.V.[meF].[Hyp].[dP].W.Y.L.C.G.[am]}$PEPTIDE1,PEPTIDE1,1:R3-14:R3$$$V2.0) | > 30.5 nM | > 74.3 nM
7 | CCCC[C@H]1C(=O)N(C)CC(=O)N[C@@H](CC(=O)O)C(=O)N[C@@H](C(C)C)C(=O)N(C)[C@@H](Cc2ccccc2)C(=O)N[C@@H](Cc2ccc(O)cc2)C(=O)N(C)CC(=O)N[C@@H](Cc2c[nH]c3ccccc23)C(=O)N[C@@H](Cc2ccc(O)cc2)C(=O)N[C@@H](CC(C)C)C(=O)N[C@H](C(=O)NCC(N)=O)CSCC(=O)N[C@@H](Cc2cc(Cl)cc(Cl)c2)C(=O)N(C)[C@@H](Cc2ccccc2)C(=O)N1C [Example 3179] ({CH2CO}-[Phe(3,5-Cl2)][NMeF][NMeNle][Sar]DV[NMeF]Y[Sar]WYLCG-NH2; thioether N-13) | > 30.5 nM | 4.78 to 72.9 nM
8 | CCCC[C@H]1C(=O)N(C)CC(=O)N[C@@H](CC(N)=O)C(=O)N[C@@H](C(C)C)C(=O)N(C)[C@@H](Cc2ccccc2)C(=O)N[C@@H](Cc2ccc(O)cc2)C(=O)N(C)CC(=O)N[C@@H](Cc2c[nH]c3ccccc23)C(=O)N[C@@H](Cc2ccc(O)cc2)C(=O)N[C@@H](CCCN)C(=O)N[C@H](C(=O)NCC(N)=O)CSCC(=O)N[C@@H](Cc2cc(F)c(F)c(F)c2)C(=O)N(C)[C@@H](Cc2ccccc2)C(=O)N1C [Example 3181] ({CH2CO}-[Phe(3,4,5-F3)][NMeF][NMeNle][Sar]NV[NMeF]Y[Sar]WY[Orn]CG-NH2; thioether N-13) | 0.385 to 6.74 nM | 0.158 to 4.71 nM
9 | CCCC[C@H]1C(=O)N2C[C@H](O)C[C@@H]2C(=O)N[C@@H](CC(=O)O)C(=O)N[C@@H](C(C)C)C(=O)N(C)[C@@H](Cc2ccccc2)C(=O)N[C@@H](Cc2ccc(O)cc2)C(=O)N(C)[C@@H](CCC(=O)O)C(=O)N[C@@H](Cc2c[nH]c3ccccc23)C(=O)N[C@@H](Cc2ccc(O)cc2)C(=O)N[C@@H](CC(C)C)C(=O)N[C@H](C(=O)NCC(N)=O)CSCC(=O)N[C@@H](Cc2cc(F)c(F)c(F)c2)C(=O)N(C)[C@@H](Cc2ccccc2)C(=O)N1C [Example 3182] ({CH2CO}-[Phe(3,4,5-F3)][NMeF][NMeNle][d(cisHyp)]DV[NMeF]Y[NMeE]WYLCG-NH2; thioether N-13) | 0.385 to 6.74 nM | 0.158 to 4.71 nM

Results, then the compound that gave them:

Row | IC50 [1] | IC50 [2] | Compound
10 | > 30.5 nM | > 74.3 nM | CCCC[C@H]1C(=O)N(C)CC(=O)N[C@@H](CC(=O)O)C(=O)N[C@@H](C(C)C)C(=O)N(C)[C@@H](Cc2ccc(O)cc2)C(=O)N[C@@H](Cc2ccc(O)cc2)C(=O)N(C)CC(=O)N[C@@H](Cc2c[nH]c3ccccc23)C(=O)N[C@@H](Cc2ccc(O)cc2)C(=O)N[C@@H](CC(C)C)C(=O)N[C@H](C(=O)NCC(N)=O)CSCC(=O)N[C@@H](Cc2ccccc2)C(=O)N(C)[C@@H](Cc2ccccc2)C(=O)N1C [Example 3168] (HELM PEPTIDE1{[O=C(C[*:3])[*:2]].F.[meF].[CCCC[C@@H](C(=O)[*:2])N(C)[*:1]].[Sar].D.V.[meY].Y.[Sar].W.Y.L.C.G.[am]}$PEPTIDE1,PEPTIDE1,1:R3-14:R3$$$V2.0)
11 | > 30.5 nM | > 74.3 nM | CCCC[C@H]1C(=O)N(C)CC(=O)N[C@@H](CC(=O)O)C(=O)N[C@@H](C(C)C)C(=O)N(C)[C@@H](Cc2ccccc2)C(=O)N[C@@H](Cc2ccc(O)cc2)C(=O)N(C)CC(=O)N[C@@H](Cc2c[nH]c3ccccc23)C(=O)N[C@@H](Cc2ccc(O)cc2)C(=O)N[C@@H](CC(C)C)C(=O)N[C@H](C(=O)NCC(N)=O)CSCC(=O)N[C@@H](CCSC)C(=O)N(C)[C@@H](Cc2ccccc2)C(=O)N1C [Example 3172] (HELM PEPTIDE1{[O=C(C[*:3])[*:2]].M.[meF].[CCCC[C@@H](C(=O)[*:2])N(C)[*:1]].[Sar].D.V.[meF].Y.[Sar].W.Y.L.C.G.[am]}$PEPTIDE1,PEPTIDE1,1:R3-14:R3$$$V2.0)
12 | 6.76 to 30.3 nM | 4.78 to 72.9 nM | CCCC[C@H]1C(=O)N(C)CC(=O)N[C@@H](CC(=O)O)C(=O)N[C@@H](C(C)C)C(=O)N(C)[C@@H](Cc2ccccc2)C(=O)N2C[C@H](N)C[C@H]2C(=O)N2CCC[C@@H]2C(=O)N[C@@H](Cc2c[nH]c3ccccc23)C(=O)N[C@@H](Cc2ccc(O)cc2)C(=O)N[C@@H](CC(C)C)C(=O)N[C@H](C(=O)NCC(N)=O)CSCC(=O)N[C@@H](Cc2ccccc2)C(=O)N(C)[C@@H](Cc2ccccc2)C(=O)N1C [Example 3178] ({CH2CO}-F[NMeF][NMeNle][Sar]DV[NMeF][Pro(4R-NH2)][dP]WYLCG-NH2; thioether N-13)
13 | 6.76 to 30.3 nM | 0.158 to 4.71 nM | CCCC[C@H]1C(=O)N(C)CC(=O)N[C@@H](CC(=O)O)C(=O)N[C@@H](C(C)C)C(=O)N(C)[C@@H](Cc2ccccc2)C(=O)N[C@@H](Cc2ccc(O)cc2)C(=O)N(C)CC(=O)N[C@@H](Cc2c[nH]c3ccccc23)C(=O)N[C@@H](Cc2ccc(O)cc2)C(=O)N[C@@H](CC(C)C)C(=O)N[C@H](C(=O)NCC(N)=O)CSCC(=O)N[C@@H](Cc2ccc(Cl)c(F)c2)C(=O)N(C)[C@@H](Cc2ccccc2)C(=O)N1C [Example 3180] ({CH2CO}-[X15][NMeF][NMeNle][Sar]DV[NMeF]Y[Sar]WYLCG-NH2; thioether N-13)

— US9850283B2, “Macrocyclic inhibitors of the PD-1/PD-L1 and CD80(B7-1)/PD-L1 protein/protein interactions” (BRISTOL-MYERS SQUIBB COMPANY, priority 2013, dated 2017)
